Experimental data taken from BindingDB's records for doi:10.1186/1471-2091-15-9 (International Centre for Genetic Engineering and …, 2014).
Counter-ions that a name gives are not always drawn.

Molecular target: T1, DNA helicase [35-727] (Plasmodium falciparum, UniProt Q8I3W6)
T1 construct: 35-727
T1 sequence (Q8I3W6 whole entry): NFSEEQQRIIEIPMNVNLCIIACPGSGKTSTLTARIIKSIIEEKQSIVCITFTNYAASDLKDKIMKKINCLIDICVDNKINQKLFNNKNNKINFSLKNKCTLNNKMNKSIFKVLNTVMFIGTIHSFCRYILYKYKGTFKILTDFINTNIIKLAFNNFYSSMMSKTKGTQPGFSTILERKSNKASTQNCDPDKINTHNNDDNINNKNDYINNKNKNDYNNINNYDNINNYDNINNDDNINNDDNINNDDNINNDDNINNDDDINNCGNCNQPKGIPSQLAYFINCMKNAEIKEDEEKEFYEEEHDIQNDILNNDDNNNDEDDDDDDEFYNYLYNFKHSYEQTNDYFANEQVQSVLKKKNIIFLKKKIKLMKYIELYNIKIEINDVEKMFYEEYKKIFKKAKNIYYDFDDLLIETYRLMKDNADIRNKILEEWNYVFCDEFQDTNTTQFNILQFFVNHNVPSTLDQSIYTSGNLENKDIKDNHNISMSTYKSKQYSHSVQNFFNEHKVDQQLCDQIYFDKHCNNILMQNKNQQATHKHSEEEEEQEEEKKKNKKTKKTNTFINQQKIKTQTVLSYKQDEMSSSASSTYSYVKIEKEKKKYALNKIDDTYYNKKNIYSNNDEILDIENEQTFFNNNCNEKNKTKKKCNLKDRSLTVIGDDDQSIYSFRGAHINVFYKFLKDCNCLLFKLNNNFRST
Test: DNA-Dependent ATPase Assay
Settings: pH 8; 37 °C
Description: The hydrolysis of ATP catalyzed by PfUDN was assayed by measuring the formation of Pi from [γ-32P] ATP. The reaction mixture of 10 μl contained [γ-32P] ATP (specific activity 222 TBq. mmol^−1) and cold ATP (1 mM), ATPase buffer (20 mM Tris-HCl, pH 8.0, 8 mM DTT, 1.0 mM MgCl2, 20 mM KCl and 16 μg/ml BSA), purified PfUDN and 50 ng or 100 ng of M13 mp19 ssDNA. The reaction mixtures were incubated at 37°C for 60 min.

Structure (SMILES) | IC50 [µM]
COc1cccc2c1C(=O)c1c(O)c3c(c(O)c1C2=O)C[C@@](O)(C(C)=O)C[C@@H]3O[C@H]1C[C@H](N)[C@H](O)[C@H](C)O1 [(7S,9S)-9-acetyl-7-[(2R,4S,5S,6S)-4-amino-5-hydroxy-6-methyloxan-2-yl]oxy-6,9,11-trihydroxy-4-methoxy-8,10-dihydro-7H-tetracene-5,12-dione;hydrochloride] | 4.4
CC[n+]1c(-c2ccccc2)c2cc(N)ccc2c2ccc(N)cc21 [AB00053825_07] | 3.1
